Consider eleven compounds from ChEMBL document CHEMBL1201862, “PubChem BioAssay data set” (2004).

SMILES strings stand for the structures.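 48-hour exposure; five concentrations; linearly interpolated endpoints. At the GI50, growth is halved.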 Activity calls are given as the source filed them. Rule as the data show it: active = GI50 up to about 1.1 µM and inactive = higher.

Among the test systems are ACHN; BT-549; HCT-116; HL-60; Hs-578T; K562; MDA-N; Malme-3M; NCI-H226; NCI-H460; OVCAR-3; SF-268; SF-295; SF-539; SK-MEL-2; UACC-257; UACC-62; CCRF-CEM; DU-145.
What all share (experiment): NCI-60 cell line screen, 48 h

Regarding `COC(=O)C(C(=O)C(=O)NC1Nc2ccc(C)cc2S1)c1nc2ccc(Cl)cc2nc1O` (stereo not drawn), the GI50 in the test with ACHN, in the test on BT-549, in the test on HCT-116, in the test with HL-60, in the test on Hs-578T and in the test with K562 was > 100 µM (inactive) throughout. In addition, the GI50 in the test with MDA-N, with Malme-3M, in the test with NCI-H226, in the test on NCI-H460, with OVCAR-3 and in the test with SF-268 was > 100 µM (inactive) in each case. Also, the GI50 in the test on SF-295, with SF-539, in the test with SK-MEL-2, in the test on UACC-257 and with UACC-62 was > 100 µM (inactive) in each case.

`CC(C)(C)OC(=O)NC(Cc1ccc(OCc2ccccc2)cn1)C(=O)NCc1ccccc1` (stereo not drawn): the GI50 was 31.3 µM (inactive) in the test with ACHN; 20.7 µM (inactive) with BT-549; 12.4 µM (inactive) in the test with CCRF-CEM; 40.5 µM (inactive) in the test on DU-145; 26.5 µM (inactive) with HCT-116; 15.1 µM (inactive) in the test with HL-60. The GI50 in the test on Hs-578T was 29 µM (inactive); with K562, 22.1 µM (inactive); in the test with MDA-N, 19.8 µM (inactive); with Malme-3M, 22.8 µM (inactive); in the test on NCI-H460 it was 22.7 µM (inactive); in the test with OVCAR-3 it was 19.3 µM (inactive). Further, the GI50 was 23.6 µM (inactive) with SF-268; 21.2 µM (inactive) in the test with SF-295; 14.3 µM (inactive) in the test on SK-MEL-2; 16.9 µM (inactive) with UACC-257; 14.5 µM (inactive) with UACC-62.

Regarding `COc1ccc(-c2nc(-c3cc4ccccc4oc3=O)cs2)cc1`, the GI50 in the test on ACHN is 34 µM (inactive); with BT-549 it was > 100 µM (inactive); with CCRF-CEM, > 100 µM (inactive); with DU-145 it was > 100 µM (inactive); in the test on HCT-116, 37.8 µM (inactive); in the test on HL-60 it was > 100 µM (inactive). The GI50 is 40.9 µM (inactive) in the test on Hs-578T; > 100 µM (inactive) in the test with K562; > 100 µM (inactive) in the test with Malme-3M; > 100 µM (inactive) in the test on NCI-H226; 59.2 µM (inactive) in the test with NCI-H460; 61.2 µM (inactive) with SF-268. Also, the GI50 was > 100 µM (inactive) in the test with SF-295; 30.9 µM (inactive) in the test on SF-539; > 100 µM (inactive) with SK-MEL-2; > 100 µM (inactive) with UACC-257; > 100 µM (inactive) with UACC-62.

For the compound `[O-]c1c[n+](CC[n+]2cc([O-])on2)no1`, the GI50 with ACHN, with BT-549, in the test with CCRF-CEM, in the test with DU-145, with HCT-116 and in the test on HL-60 was > 100 µM (inactive) throughout. Besides, the GI50 with Hs-578T, in the test with K562, with MDA-N, in the test on Malme-3M, in the test on NCI-H460 and with OVCAR-3 was > 100 µM (inactive) in each case. Further, the GI50 in the test on SF-268, with SF-295, in the test with SK-MEL-2, in the test on UACC-257 and in the test with UACC-62 was > 100 µM (inactive) in each case.

As to `O=C(Cn1cc(F)c(=O)[nH]c1=O)C12CC3CC(CC(C3)C1)C2`, the GI50 with ACHN, in the test with BT-549, with CCRF-CEM, in the test with DU-145, with HCT-116 and in the test with HL-60 was > 100 µM (inactive) throughout. The GI50 in the test with Hs-578T, in the test with K562, in the test on MDA-N, in the test on Malme-3M, in the test on NCI-H460 and with OVCAR-3 was > 100 µM (inactive) in each case. Moreover, the GI50 in the test with SF-268, with SF-295, in the test on SF-539, in the test with SK-MEL-2, in the test on UACC-257 and with UACC-62 was > 100 µM (inactive) each time.

Turning to `CC(=O)c1sc2n(C)c(=O)c3ccccc3[n+]2c1C`, the GI50 with ACHN, in the test on BT-549, with CCRF-CEM, with DU-145, in the test with HCT-116 and with HL-60 was > 100 µM (inactive) each time. For the same compound, the GI50 with Hs-578T, in the test with K562, in the test on MDA-N, in the test with NCI-H226, in the test on NCI-H460 and in the test with OVCAR-3 was > 100 µM (inactive) throughout. For the same compound, the GI50 with SF-268, in the test on SF-295, in the test on SF-539, with SK-MEL-2, in the test on UACC-257 and in the test with UACC-62 was > 100 µM (inactive) throughout.

As for `CC(=O)c1cccc(NC(=O)/C(=N\NC(=S)NN)C2C(=O)Nc3ccccc3[S+]2[O-])c1` (stereo not drawn), the GI50 in the test on ACHN, in the test on BT-549, in the test with CCRF-CEM, in the test with HCT-116, in the test with HL-60 and in the test with Hs-578T was > 100 µM (inactive) each time. In addition, the GI50 in the test on K562, in the test on MDA-N, with Malme-3M, with NCI-H226, with OVCAR-3 and in the test with SF-268 was > 100 µM (inactive) throughout. Also, the GI50 with SF-295, in the test with SF-539, in the test on SK-MEL-2, with UACC-257 and in the test with UACC-62 was > 100 µM (inactive) throughout.

Take `CCOC1Oc2ccccc2-c2nc(N)ncc21` (stereo not drawn): the GI50 was 59.4 µM (inactive) in the test with ACHN; 31.3 µM (inactive) with BT-549; 36.8 µM (inactive) in the test on CCRF-CEM; 68.4 µM (inactive) in the test on DU-145; 36.5 µM (inactive) in the test on HCT-116; 20.8 µM (inactive) in the test on HL-60. The GI50 in the test with Hs-578T was 29.2 µM (inactive); with MDA-N, 31.6 µM (inactive); in the test on NCI-H226, 61.9 µM (inactive); in the test on NCI-H460, 24.9 µM (inactive); in the test with OVCAR-3, 57 µM (inactive); in the test with SF-268, 44.1 µM (inactive). Moreover, the GI50 in the test on SF-295 is 34.1 µM (inactive); in the test on SF-539, 33.4 µM (inactive); in the test on SK-MEL-2, > 100 µM (inactive); in the test on UACC-257 it was 55.2 µM (inactive); in the test on UACC-62, 29.1 µM (inactive).

As to `CC(=O)OCC1OC(N2C(=S)N[C@H]([C@@H](O)[C@H](O)[C@H](O)CO)[C@H]2O)C(OC(C)=O)C(OC(C)=O)C1OC(C)=O` (stereo partly drawn), the GI50 with ACHN, with BT-549, in the test with CCRF-CEM, in the test on DU-145, with HCT-116 and in the test with Hs-578T was > 100 µM (inactive) throughout. Moreover, the GI50 in the test on K562, in the test with MDA-N, in the test with NCI-H460, in the test with OVCAR-3, with SF-268 and with SF-295 was > 100 µM (inactive) throughout. Further, the GI50 in the test with SF-539, with SK-MEL-2, with UACC-257 and with UACC-62 was > 100 µM (inactive) throughout.

In the case of `COc1ccc2nc(-c3ccc(O)cc3)sc2c1`, the GI50 is 18 µM (inactive) with ACHN; 18.7 µM (inactive) in the test on BT-549; 34.7 µM (inactive) in the test on DU-145; 17.5 µM (inactive) with HCT-116; 24 µM (inactive) in the test on HL-60; 36.2 µM (inactive) with K562. Also, the GI50 is 22.5 µM (inactive) with MDA-N; 23.5 µM (inactive) in the test with Malme-3M; 23.5 µM (inactive) in the test with NCI-H226; 39.3 µM (inactive) in the test on NCI-H460; 19.6 µM (inactive) in the test on OVCAR-3; 21.1 µM (inactive) in the test on SF-268. For the same compound, the GI50 is 19.8 µM (inactive) in the test on SF-295; 21.4 µM (inactive) in the test on SF-539; 43.4 µM (inactive) in the test with SK-MEL-2; 21.6 µM (inactive) with UACC-257; 21.7 µM (inactive) in the test with UACC-62.

Regarding `C=C1C[C@H]2C=Nc3cc(OCCCOc4cc5c(cc4OC)C(=O)N4CC(=C)C[C@H]4C=N5)c(OC)cc3C(=O)N2C1` [SJG-136], the GI50 with ACHN is < 0.01 µM (active); with BT-549, 0.0111 µM (active); with CCRF-CEM, < 0.01 µM (active); in the test on HCT-116, 0.0103 µM (active); in the test on HL-60, < 0.01 µM (active); in the test on Hs-578T, 0.0426 µM (active). In addition, the GI50 with K562 is < 0.01 µM (active); in the test on MDA-N, 0.0143 µM (active); in the test with Malme-3M, 0.0109 µM (active); with NCI-H226, 0.0122 µM (active); in the test with NCI-H460 it was < 0.01 µM (active); with OVCAR-3, 0.0172 µM (active). In addition, the GI50 in the test on SF-268 was 0.000832 µM (active); with SF-295, < 0.01 µM (active); with SF-539, < 0.01 µM (active); in the test on UACC-257, 0.0146 µM (active); with UACC-62, < 0.01 µM (active).
